{
  "source": "patent US8138196B2",
  "about": "“Antifungal wallboards and building materials and methods for the production thereof” (Syngenta Crop Protection, Inc., priority 2005, dated 2012)",
  "assay_type_in_all_cases": "cell-based",
  "key": {"[1]": {"test_system": "Alternaria tenuissima (DSM 63360)", "assay": "Example 4 liquid culture assay on 24 and 48 well plates, 3 way mixtures", "settings": "A. tenuissima", "source_text": "For test 006-2005: Alternaria tenuissima (DSM 63360), Penicillium chrysogenum (DSM 895), Cladosporium cladosporoides (DSM62121), Aspergillus niger (DSM 63263), Aspergillus versicolor (DSM 1943) and Aureobasidium pullulans (ATCC 15233) were separately cultivated on PDA media to […] sporulation. Spore suspensions were produced for each fungus. Spore concentrations of approx. 100,000 spores/ml were used.\n[…] Spore suspensions were produced for each fungus. Spore concentrations of approx. 100,000 spores/ml were used.\nTest method used: liquid culture assay on 24 and 48 well plates respectively.\nFor testing of the 3 way mixtures each of the formulated fungicide (100 ul) was filled into the 24 and 48 well plates respectively. Afterwards 700 ul of 0.3% AE media was added to the plate. The spore suspension of the specific fungi was added to this media in advance containing approx. 100,000 spores/ml. For testing the solo compounds the equivalent of distilled water was added instead of the formulated fungicide volume of the mixing partners. The plates were then sealed and incubated at 24° C.\nDependent on the growth properties of each organisms, the evaluation was done after 3 to 6 days, when the surface of the check well was covered with mycelium. The evaluation was performed by assessing the growth of the fungi related to the check growth. The results are expressed as % activity relative to the check (values of 0-100% growth). Afterwards the results were converted in % growth inhibition.\nFor the mixtures of different fungicides the synergism was calculated based on the Colby equation, which is described above."}, "[2]": {"test_system": "Stachybotrys chartarum (DSM2144)", "assay": "Example 3 liquid culture assay on 24 well plates, solo and 2-way mixtures", "settings": "test 006-2005; rate (AZO) 0.8 mg ai/l", "source_text": "(§1) Alternaria tenuissima (DSM 63360), Penicillium chrysogenum (DSM 895), Stachybotrys chartarum (DSM2144), Aspergillus niger (DSM 63263), Aspergillus versicolor (DSM 1943) and Aureobasidium pullulans (ATCC 15233) were separately cultivated on PDA media to […] sporulation. Spore suspensions were produced for each fungi. Spore concentrations of approx. 100.000 spores/ml were used.\n(§2) Test method used: liquid culture assay on 24 well plates.\n(§3) For solo (i.e. single) ai testing the formulated fungicide (100 ul) was filled into the 24 well plates and 100 ul distilled water was added. Afterwards 800 ul of 0.3% AE media was added to the plate. The spore suspension of the specific fungi was added to this media in advance containing approx. 100,000 spores/ml. The 24 well plates were sealed and incubated at 24° C.\n(§4) Dependent on the growth properties of each organisms, the evaluation was done after 3 to 6 days, when the surface of the check well was covered with mycelium. The evaluation was performed by assessing the growth of the fungi related to the check growth. The results are expressed as % activity relative to the check (values of 0-100% growth). Afterwards the results were converted in % O growth inhibition.\n(§5) For synergism testing of the 2-way mixtures 100 ul of each fungicide were filled into 24 well plates and 800 ul of 0.3% AE media containing the spore suspension was added. Different ratios of the 2 fungicide rates were tested at the same time.\n(§6) For the mixtures of different fungicides the synergism was calculated based on the Colby equation, which is described below: […]\n(§7) The fungicidal action to be expected, We, for a given combination of two fungicides can be calculated as follows (see COLBY, S. R. “Calculating synergistic and antagonistic response of herbicide combinations”. Weeds 15, pages 20-22; 1967): We=X+[Y×(100−X)/100] wherein: • X=% activity in the case of treatment with the compound of formula I at rate x, in comparison with untreated control (=0%). • Y=% activity in the case of treatment with a compound of formula II at rate y, in comparison with untreated control. • We=expected activity (% activity in comparison with untreated control) after treatment with the compound of formula I and a compound of formula II at a rate of x+y kg of active ingredient.\n(§8) If the activity actually observed is greater than the expected value We (factor observed activity/expected activity >1.2), there is a synergistic effect."}, "[3]": {"test_system": "Aspergillus versicolor (DSM 1943)", "assay": "Example 3 liquid culture assay on 24 well plates, solo and 2-way mixtures", "settings": "test 006-2005", "source_text": "as §1, §2, §3, §4, §5, §6, §7, §8"}, "[4]": {"test_system": "Aspergillus niger (DSM 63263)", "assay": "Example 3 liquid culture assay on 24 well plates, solo and 2-way mixtures", "settings": "test 006-2005; rate (AZO) 0.05 mg ai/l", "source_text": "as §1, §2, §3, §4, §5, §6, §7, §8"}, "[5]": {"test_system": "Penicillium chrysogenum (DSM 895)", "assay": "Example 3 liquid culture assay on 24 well plates, solo and 2-way mixtures", "settings": "test 006-2005", "source_text": "as §1, §2, §3, §4, §5, §6, §7, §8"}, "[6]": {"test_system": "Alternaria tenuissima (DSM 63360)", "assay": "Example 3 liquid culture assay on 24 well plates, solo and 2-way mixtures", "source_text": "as §1, §2, §3, §4, §5, §6, §7, §8"}, "[7]": {"test_system": "Aureobasidium pullulans (ATCC 15233)", "assay": "Example 3 liquid culture assay on 24 well plates, solo and 2-way mixtures", "source_text": "as §1, §2, §3, §4, §5, §6, §7, §8"}, "[8]": {"test_system": "Coniophora puteana", "assay": "radial mycelial growth on fungicide amended agar", "settings": "estimated from graph of % activity (radial mycelial growth relative to agar without fungicide) against concentration", "procedure": "Stem cultures of Coniophora puteana were produced by propagating the fungus on a growth medium comprising yeast extract (10 g), glycerol (20 ml), magnesium sulphate (0.5 g), sodium nitrate (6.0 g), potassium chloride (0.5 g), potassium dihydrogen orthophosphate (1.5 g), agar (20 g) in distilled water (980 ml).\nFungicides were added at levels of 5000, 100, 10, 1, 0.1 and 0.01 mg fungicide/litre of growth medium (described above) to give […] different growth medium compositions for each fungicide. Mycelial plugs were taken from the stem cultures and transferred upside down onto petri dishes containing the fungicide amended agar.\nThe radial mycelial growth of the fungus was measured individually on all test petri dishes. The results are expressed as % activity relative to the radial growth on agar without fungicide.\nFor each fungicide, a graph was drawn of percentage activity against concentration of fungicide in the growth medium. From this graph, the concentrations of fungicide required to achieve 80% activity was estimated. These figures are given in the results table."}, "[9]": {"settings": "test 006-2005, rate (AZO) 0.05 mg ai/l"}, "[10]": {"settings": "test 006-2005, rate (AZO) 0.2 mg ai/l"}, "[11]": {"settings": "test 006-2005, rate (AZO) 0.8 mg ai/l"}},
  "data": [
    {"smiles": "CO/C=C(/C(=O)OC)c1ccccc1Oc1cc(Oc2ccccc2C#N)ncn1", "note": "[Azoxystrobin]", "values": [
      {"measurement": "inh % (AZO alone)", "setting": "[1]; test 006-2005, AZO 0.05 mg ai/l", "result": 10, "unit": "%"},
      {"measurement": "inh % (AZO alone)", "setting": "[1]; test 006-2005, AZO 0.2 mg ai/l", "result": 10, "unit": "%"},
      {"measurement": "inh % (AZO alone)", "setting": "[1]; test 006-2005, AZO 0.8 mg ai/l", "result": 10, "unit": "%"},
      {"measurement": "inh % (AZO alone)", "setting": "[1]; test 006-2005, AZO 1.6 mg ai/l", "result": 10, "unit": "%"},
      {"measurement": "inh % (AZO alone)", "setting": "[1]; test 006-2005, AZO 3.12 mg ai/l", "result": 10, "unit": "%"},
      {"measurement": "inh % (AZO alone)", "setting": "[1]; test 006-2005, AZO 12.5 mg ai/l", "result": 10, "unit": "%"},
      {"measurement": "inh % (AZO alone)", "setting": "[1]; test 006-2005, AZO 50 mg ai/l", "result": 10, "unit": "%"},
      {"measurement": "inh % (AZO alone)", "setting": "[1]; test 006-2005, AZO 100 mg ai/l", "result": 10, "unit": "%"},
      {"measurement": "inh % (AZO alone)", "setting": "[1]; test 015-2005, AZO 0.05 mg ai/l", "result": 10, "unit": "%"},
      {"measurement": "inh % (AZO alone)", "setting": "[1]; test 015-2005, AZO 0.2 mg ai/l", "result": 10, "unit": "%"},
      {"measurement": "inh % (AZO alone)", "setting": "[2]", "result": 10, "unit": "%"},
      {"measurement": "inh % (AZO alone)", "setting": "[3]; rate (AZO) 0.8 mg ai/l", "result": 30, "unit": "%"},
      {"measurement": "inh % (AZO alone)", "setting": "[3]; rate (AZO) 1.6 mg ai/l", "result": 30, "unit": "%"},
      {"measurement": "inh % (AZO alone)", "setting": "[4]", "result": 10, "unit": "%"},
      {"measurement": "inh % (AZO alone)", "setting": "[5]; rate (AZO) 0.05 mg ai/l", "result": 10, "unit": "%"},
      {"measurement": "inh % (AZO alone)", "setting": "[5]; rate (AZO) 0.2 mg ai/l", "result": 0, "unit": "%"},
      {"measurement": "inh % (AZO alone)", "setting": "[5]; rate (AZO) 0.8 mg ai/l", "result": 10, "unit": "%"},
      {"measurement": "inh % (AZO alone)", "setting": "[5]; rate (AZO) 1.6 mg ai/l", "result": 10, "unit": "%"},
      {"measurement": "inh % (AZO alone)", "setting": "[5]; rate (AZO) 3.12 mg ai/l", "result": 10, "unit": "%"},
      {"measurement": "inh % (AZO alone)", "setting": "[5]; rate (AZO) 12.5 mg ai/l", "result": 10, "unit": "%"},
      {"measurement": "inh % (AZO alone)", "setting": "[5]; rate (AZO) 50 mg ai/l", "result": 10, "unit": "%"},
      {"measurement": "inh % (AZO alone)", "setting": "[5]; rate (AZO) 100 mg ai/l", "result": 10, "unit": "%"},
      {"measurement": "inh % (AZO alone)", "setting": "[6]; [9]", "result": 10, "unit": "%"},
      {"measurement": "inh % (AZO alone)", "setting": "[6]; [10]", "result": 10, "unit": "%"},
      {"measurement": "inh % (AZO alone)", "setting": "[6]; [11]", "result": 10, "unit": "%"},
      {"measurement": "inh % (AZO alone)", "setting": "[6]; test 006-2005, rate (AZO) 100 mg ai/l", "result": 30, "unit": "%"},
      {"measurement": "inh % (AZO alone)", "setting": "[6]; test 015-2005, rate (AZO) 0.4 mg ai/l", "result": 10, "unit": "%"},
      {"measurement": "inh % (AZO alone)", "setting": "[6]; test 015-2005, rate (AZO) 0.8 mg ai/l", "result": 10, "unit": "%"},
      {"measurement": "inh % (AZO alone)", "setting": "[6]; test 015-2005, rate (AZO) 1.6 mg ai/l", "result": 10, "unit": "%"},
      {"measurement": "inh % (AZO alone)", "setting": "[6]; test 015-2005, rate (AZO) 3.1 mg ai/l", "result": 10, "unit": "%"},
      {"measurement": "inh % (AZO alone)", "setting": "[6]; test 015-2005, rate (AZO) 6.25 mg ai/l", "result": 10, "unit": "%"},
      {"measurement": "inh % (AZO alone)", "setting": "[7]; [9]", "result": 0, "unit": "%"},
      {"measurement": "inh % (AZO alone)", "setting": "[7]; [10]", "result": 10, "unit": "%"},
      {"measurement": "inh % (AZO alone)", "setting": "[7]; [11]", "result": 10, "unit": "%"},
      {"measurement": "inh % (AZO alone)", "setting": "[7]; test 006-2005, rate (AZO) 1.6 mg ai/l", "result": 10, "unit": "%"},
      {"measurement": "inh % (AZO alone)", "setting": "[7]; test 006-2005, rate (AZO) 3.12 mg ai/l", "result": 10, "unit": "%"},
      {"measurement": "inh % (AZO alone)", "setting": "[7]; test 006-2005, rate (AZO) 12.5 mg ai/l", "result": 10, "unit": "%"},
      {"measurement": "inh % (AZO alone)", "setting": "[7]; test 015-2005, rate (AZO) 12.5 mg ai/l", "result": 0, "unit": "%"},
      {"measurement": "inh % (AZO alone)", "setting": "[7]; test 015-2005, rate (AZO) 25 mg ai/l", "result": 0, "unit": "%"},
      {"measurement": "inh % (AZO alone)", "setting": "[7]; test 015-2005, rate (AZO) 50 mg ai/l", "result": 0, "unit": "%"},
      {"measurement": "inh % (AZO alone)", "setting": "[7]; test 015-2005, rate (AZO) 100 mg ai/l", "result": 0, "unit": "%"},
      {"measurement": "Concentration required for 80% Activity", "setting": "[8]", "result": 0.38, "unit": "mg/L"}
    ]}
  ]
}
